Assay results reported in ChEMBL document CHEMBL3507680, “University of Dundee, Gates Library screen for HepG2 cell viability”.

Assay: Human HepG2 cell viability assay in 384 well format
Format: toxicity, cell-based
Set-up: dose 125 nL, time 70.5 hour; cytotoxicity at 70.5 h: concentration not given beside the values
Conditions: HepG2 cells, read-out: Inhibition

Q: With `Cc1nn(C)c(C)c1OCC(=O)NCC(O)c1ccsc1` (configuration not stated) as the compound, how does the cytotoxicity at 70.5 h read?
A: 0.375%

Q: With `Cc1nn(C)c(C)c1OCC(=O)NCc1cccc(CO)c1` as the compound, how does the cytotoxicity at 70.5 h read?
A: 2.69%

Q: With `O=C(CCCNCc1ccc(Cl)c2cccnc12)NC1CC1` as the compound, how does the cytotoxicity at 70.5 h read?
A: -1.79%

Q: Which cytotoxicity at 70.5 h does the source give for `CC(C)N(CCSc1ncnc2[nH]ncc12)C(C)C` here?
A: -1.52%

Q: For `Cc1nn(C)c(C)c1OCC(=O)NCC(O)c1ccco1` (configuration not stated), which cytotoxicity at 70.5 h is on record?
A: 16%

Q: With `Cc1ccc(N2CCCC(NCCS(C)(=O)=O)C2)nn1` (configuration not stated) as the compound, how does the cytotoxicity at 70.5 h read?
A: -1.77%

Q: With `CC(C)=CCNC1CCCN(c2ccc(C)nn2)C1` (configuration not stated) as the compound, how does the cytotoxicity at 70.5 h read?
A: -1.28%

Q: For `N#Cc1cc(CSCCN2CCOCC2)ccc1F`, which cytotoxicity at 70.5 h is on record?
A: -13.8%

Q: With `COCCn1cc(C(=O)N2CCCC2c2noc(C)n2)ccc1=O` (configuration not stated) as the compound, how does the cytotoxicity at 70.5 h read?
A: 40.8%

Q: For `Cc1nc(C)n(CC2CCCCN2CCCS(C)(=O)=O)n1` (configuration not stated), which cytotoxicity at 70.5 h is on record?
A: 9.04%

Q: With `Cc1nc(C)n(CC2CCCCN2CCCO)n1` (configuration not stated) as the compound, how does the cytotoxicity at 70.5 h read?
A: 9.77%

Q: Which cytotoxicity at 70.5 h does the source give for `COCCn1cc(C(=O)N2CCCC2c2ccc(F)cc2)ccc1=O` (configuration not stated) here?
A: -1.67%

Q: For `COCCn1cc(C(=O)N2CCCC2c2ccccc2C)ccc1=O` (configuration not stated), which cytotoxicity at 70.5 h is on record?
A: -7.56%

Q: Which cytotoxicity at 70.5 h does the source give for `c1ccc(-c2nc(CN3CCOC(Cn4cccn4)C3)cs2)cc1` (configuration not stated) here?
A: -2.87%

Q: Which cytotoxicity at 70.5 h does the source give for `Cc1cc(Br)oc1C(=O)N1CCN(CC(N)=O)CC1` here?
A: -1.55%

Q: With `COc1cc(C)nc(N2CCN(C(=O)CCc3ccco3)CC2)n1` as the compound, how does the cytotoxicity at 70.5 h read?
A: -2.64%

Q: With `NC(=O)CCn1ccc(NC(=O)c2ccc(OCC3CC3)cc2)n1` as the compound, how does the cytotoxicity at 70.5 h read?
A: -3.84%

Q: With `Cc1ccc(C(=O)Nc2ccn(CCC(N)=O)n2)cc1` as the compound, how does the cytotoxicity at 70.5 h read?
A: -3.18%

Q: With `CN1CCC(N(Cc2ccccc2F)C(=O)NCc2ccncc2)CC1` as the compound, how does the cytotoxicity at 70.5 h read?
A: 30.5%

Q: Which cytotoxicity at 70.5 h does the source give for `CCC(=O)N1CCN(C(=O)Nc2cccc(N3CCOCC3)c2)CC1` here?
A: 2.85%

Q: For `CCOC(C)c1nc(CN2CCN(Cc3cccnc3)CC2)cs1` (configuration not stated), which cytotoxicity at 70.5 h is on record?
A: -4.18%

Q: Which cytotoxicity at 70.5 h does the source give for `O=C(NCc1ccccc1CN1CCC(O)CC1)Nc1ccccn1` here?
A: -3.22%

Q: For `c1cc(C2CCN(Cc3nc(-c4ccsc4)no3)CC2)[nH]n1`, which cytotoxicity at 70.5 h is on record?
A: -3.49%

Q: Which cytotoxicity at 70.5 h does the source give for `O=C(CN1CCCCC1Cn1cccn1)NC1CCOCC1` (configuration not stated) here?
A: -6.42%

Q: Which cytotoxicity at 70.5 h does the source give for `Cn1cc(-c2nc(CN3CCOC(Cn4cccn4)C3)cs2)cn1` (configuration not stated) here?
A: -5.18%

Q: With `CC(C)N(C)S(=O)(=O)N1CCCC1CC(=O)c1cccs1` (configuration not stated) as the compound, how does the cytotoxicity at 70.5 h read?
A: -0.315%

Q: For `CCOc1ccccc1NC(C)C(=O)N(C)Cc1cccc(F)c1` (configuration not stated), which cytotoxicity at 70.5 h is on record?
A: 6.19%

Q: Which cytotoxicity at 70.5 h does the source give for `CCC(CNC(=O)c1ccccn1)N1CCc2ccccc2C1` (configuration not stated) here?
A: 10.5%

Q: Which cytotoxicity at 70.5 h does the source give for `O=C(NCC1(N2CCOCC2)CCSC1)Nc1ccncc1` (configuration not stated) here?
A: -6.91%

Q: With `CN(Cc1ccco1)C(=O)NCc1nnc2n1CCC2` as the compound, how does the cytotoxicity at 70.5 h read?
A: -8.06%

Q: Which cytotoxicity at 70.5 h does the source give for `Cc1cc(C(=O)CN2C(=O)c3ccccc3CS2(=O)=O)c(C)[nH]1` here?
A: -6.26%

Q: Which cytotoxicity at 70.5 h does the source give for `Cc1ccc(NC(C)C(=O)N(C)Cc2cccc(F)c2)cc1C(N)=O` (configuration not stated) here?
A: -4.3%

Q: Which cytotoxicity at 70.5 h does the source give for `CCOCCC(=O)NC1(c2cccc(Br)c2)CC1` here?
A: -3.83%

Q: For `CN(Cc1ccco1)Cc1ccccc1CNC(=O)c1csnn1`, which cytotoxicity at 70.5 h is on record?
A: -1.62%

Q: For `CN(Cc1ccco1)Cc1ccccc1CNC(=O)c1cnccn1`, which cytotoxicity at 70.5 h is on record?
A: -6.66%

Q: Which cytotoxicity at 70.5 h does the source give for `N#Cc1cc(NC(=O)c2ccncc2)ccc1N1CCC(O)CC1` here?
A: -3.68%

Q: Which cytotoxicity at 70.5 h does the source give for `C=C(C)CN1CCC(NC(=O)NCCc2ccccc2OC)CC1` here?
A: -7.86%

Q: For `CC(=O)c1cccc(OCCCC(=O)N(C)CCC(F)(F)F)c1`, which cytotoxicity at 70.5 h is on record?
A: -4.24%

Q: For `CN(Cc1ccco1)Cc1ccccc1CNC(=O)c1c[nH]nn1`, which cytotoxicity at 70.5 h is on record?
A: -1.03%

Q: With `COc1ccc(F)cc1C(C)NC(=O)Nc1nncs1` (configuration not stated) as the compound, how does the cytotoxicity at 70.5 h read?
A: 4.1%

Q: For `COCc1ccccc1NC(=O)NC(C)c1ccc(C)o1` (configuration not stated), which cytotoxicity at 70.5 h is on record?
A: -3.14%

Q: With `CS(=O)(=O)NCCNC(=O)c1cnc(-c2ccccc2)nc1` as the compound, how does the cytotoxicity at 70.5 h read?
A: -4.82%

Q: Which cytotoxicity at 70.5 h does the source give for `N#Cc1ccc(CNC(=O)NC2CCN(c3ncccn3)CC2)cc1` here?
A: -7.8%

Q: Which cytotoxicity at 70.5 h does the source give for `Cc1cc(C(=O)Nc2cccn(Cc3ccccc3)c2=O)no1` here?
A: 1.5%

Q: With `O=C(NCCC1CCN(CC(F)(F)F)CC1)C1CCCOC1` (configuration not stated) as the compound, how does the cytotoxicity at 70.5 h read?
A: 3.94%

Q: For `CN(CCc1nccs1)C(=O)CC1(O)CCCCC1`, which cytotoxicity at 70.5 h is on record?
A: -5.26%

Q: For `N#CCCN(Cc1ccccn1)Cn1cc(Cl)cn1`, which cytotoxicity at 70.5 h is on record?
A: 29.9%

Q: Which cytotoxicity at 70.5 h does the source give for `CCSCCC(C)N(C)C(=O)c1ccc2nncn2c1` (configuration not stated) here?
A: -4.21%

Q: For `Cn1cc(S(=O)(=O)NC(=O)C2(c3cccc(Cl)c3)CC2)cn1`, which cytotoxicity at 70.5 h is on record?
A: -10.1%

Q: For `CCN1CCC(CNC(=O)Nc2cnn(CC(N)=O)c2)C1` (configuration not stated), which cytotoxicity at 70.5 h is on record?
A: -8.69%

Q: For `NC(=O)Cn1cc(NC(=O)NCC2CCN(c3ccccc3)C2)cn1` (configuration not stated), which cytotoxicity at 70.5 h is on record?
A: -8.01%

Q: With `Cc1nn(CCC#N)c(C)c1CCC(=O)N(C(C)C)C1CC1` as the compound, how does the cytotoxicity at 70.5 h read?
A: -10.9%

Q: Which cytotoxicity at 70.5 h does the source give for `CC(C)C(=O)Nc1ccc(Sc2nncn2C)c(Cl)c1` here?
A: -16%

Q: Which cytotoxicity at 70.5 h does the source give for `O=C(O)c1ccc(OC2CCOCC2)cc1` here?
A: -3.72%

Q: For `CCOc1cc(C(=O)N2CC=C(c3ccc(O)cc3)CC2)ccn1`, which cytotoxicity at 70.5 h is on record?
A: -14.3%

Q: With `Cc1nc(C2CCCN(c3ncc(Br)cn3)C2)no1` (configuration not stated) as the compound, how does the cytotoxicity at 70.5 h read?
A: -13.9%

Q: Which cytotoxicity at 70.5 h does the source give for `Cc1ccc(F)c(OC2CCCN(c3cnn(C)c3)C2=O)c1` (configuration not stated) here?
A: -3.77%

Q: Which cytotoxicity at 70.5 h does the source give for `Cn1cc(N2CCCC(Oc3ccc(F)cc3Cl)C2=O)cn1` (configuration not stated) here?
A: -4.99%

Q: With `CCOc1cccnc1C(=O)N1CC=C(c2ccc(O)cc2)CC1` as the compound, how does the cytotoxicity at 70.5 h read?
A: -7.65%

Q: Which cytotoxicity at 70.5 h does the source give for `Cc1noc(-c2ccnc(N3CCC(N4CCCC4)CC3)c2)n1` here?
A: -8.66%

Q: With `Cc1ccc(CC(=O)Nc2ccc(CS(C)(=O)=O)c(F)c2)cc1` as the compound, how does the cytotoxicity at 70.5 h read?
A: -2.59%

Q: Which cytotoxicity at 70.5 h does the source give for `CN1CC(Nc2nc3c(cnn3-c3ccccc3)c(=O)[nH]2)CCC1=O` (configuration not stated) here?
A: -10.2%

Q: With `CCCOC1CCCN(C(=O)c2[nH]nc(C)c2Br)C1` (configuration not stated) as the compound, how does the cytotoxicity at 70.5 h read?
A: -8.95%

Q: Which cytotoxicity at 70.5 h does the source give for `CSCC(C)(O)CNc1cccc(F)c1C(C)=O` (configuration not stated) here?
A: -5.74%

Q: Which cytotoxicity at 70.5 h does the source give for `CC(C)C(C)(O)CNc1cccc(F)c1C#N` (configuration not stated) here?
A: -7.64%

Q: For `COCCCn1ccc(NC(=O)NCCCn2ccnc2)n1`, which cytotoxicity at 70.5 h is on record?
A: -18.9%

Q: With `CCCNC(=O)Nc1ccn(CCCOC)n1` as the compound, how does the cytotoxicity at 70.5 h read?
A: 9.71%

Q: For `CC(C)COC(C)C(=O)N1CCC(C)CC1` (configuration not stated), which cytotoxicity at 70.5 h is on record?
A: 3.43%

Q: Which cytotoxicity at 70.5 h does the source give for `COc1ccccc1C(C)(C)NCc1ccco1` here?
A: -19.1%

Q: With `CC(C)(C)CC(=O)Nc1ccc(S(C)(=O)=O)nc1` as the compound, how does the cytotoxicity at 70.5 h read?
A: -6.59%

Q: With `CC1CCCCN1S(=O)(=O)NCc1cccnc1OC1CCCC1` (configuration not stated) as the compound, how does the cytotoxicity at 70.5 h read?
A: -2.43%

Q: For `O=C(Nc1ccc(Cn2cccn2)cc1)N1CCC(CO)CC1`, which cytotoxicity at 70.5 h is on record?
A: -5.76%

Q: With `O=C(Nc1ccc(Cn2cccn2)cc1)N1CCC2(CC1)OCCO2` as the compound, how does the cytotoxicity at 70.5 h read?
A: 22.5%

Q: Which cytotoxicity at 70.5 h does the source give for `O=C(C[S+]([O-])Cc1cccc(Cl)c1)NC1CCCC1` (configuration not stated) here?
A: -3.67%

Q: For `Cc1noc(OCCOc2cccc(C#N)c2)n1`, which cytotoxicity at 70.5 h is on record?
A: -3.56%

Q: With `CCN1CCN(c2ccc(C(=O)NC(C)c3ccncc3)cc2)CC1` (configuration not stated) as the compound, how does the cytotoxicity at 70.5 h read?
A: 6.23%

Q: For `O=C(NCCCO)Nc1cccc(C[S+]([O-])c2ccccc2)c1` (configuration not stated), which cytotoxicity at 70.5 h is on record?
A: -6.37%

Q: With `CS(=O)(=O)NCC1(c2ccccc2Br)CC1` as the compound, how does the cytotoxicity at 70.5 h read?
A: -5.81%

Q: With `CCN1CCN(c2ccc(C(=O)NC(C)CCOC)cc2)CC1` (configuration not stated) as the compound, how does the cytotoxicity at 70.5 h read?
A: 23.2%

Q: With `CN(C)S(=O)(=O)NCC1(c2ccccc2Br)CC1` as the compound, how does the cytotoxicity at 70.5 h read?
A: 13.4%

Q: With `COc1ccc(-c2ccc(C(=O)NS(C)(=O)=O)c(F)c2)c(F)c1` as the compound, how does the cytotoxicity at 70.5 h read?
A: -6.13%

Q: Which cytotoxicity at 70.5 h does the source give for `Cc1nn(C)c(C)c1NC(=O)CNc1cccc(CC(F)(F)F)c1` here?
A: -1.15%

Q: With `Cc1ccc(C(F)(F)F)cc1NCC(=O)Nc1c(C)nn(C)c1C` as the compound, how does the cytotoxicity at 70.5 h read?
A: 11.3%

Q: For `Cn1c(=O)oc2ccc(Nc3ncc(C#N)cc3Cl)cc21`, which cytotoxicity at 70.5 h is on record?
A: -2.37%

Q: With `NC(=O)CN1CCCC1c1ccccc1Br` (configuration not stated) as the compound, how does the cytotoxicity at 70.5 h read?
A: 7.42%

Q: With `CNC(=O)CCN1CCCC1c1ccccc1Br` (configuration not stated) as the compound, how does the cytotoxicity at 70.5 h read?
A: 28%

Q: With `Cn1c(=O)oc2cc(Nc3ncc(C#N)cc3Cl)ccc21` as the compound, how does the cytotoxicity at 70.5 h read?
A: -4.36%
